Drawing on US20090298956A1, “SELF-PRESERVED EMULSIONS” (priority 2008, published 2009), this text covers log reductions for one substance.

Holding throughout (type): cell-based
One assay concerns S. aureus. The assay can be described thus: Preservative efficacy test (PET), log reduction of S. aureus. The following applies: 24 hours, PET Screen International. Here is the method:
(§1) The antimicrobial activity and stability of the formulations shown in Table 1A below, which contain either 0.1 or 0.2 (w/v %) of Compound 1 were evaluated. Table 1A also contains an emulsion formulation (Formulation C) consisting of Cyclosporin and Compound 1. Table 1B constitutes overall standard preservative efficacy test (PET Screen International) results along with the results of a visual assessment of physical stability of the emulsions. […] Histograms for Formulation B, showing the initial particle size measurements as well as 60 weeks, can be seen in FIGS. 1A & 1B. Similarly, histograms for Formulation C, containing 0.05% Cyclosporin, showing the initial particle size measurements as well as at 62 weeks, can be seen in FIGS. 2A & 2B. […] The microbiological evaluation was conducted by determining the extent to which the emulsions reduced an initial population of about 10^6 cfu/mL microorganisms over time. The abbreviation “cfu” means colony forming unit. […] Overall EPA requirement of preservation in all tested formulations was achieved. The microbiology results are provided in greater detail in Table 1C, where the results of the evaluation of five microorganisms are provided.

In another assay the test system is P. aeruginosa. The experiment in a line: Preservative efficacy test (PET), log reduction of P. aeruginosa. The following applies: 24 hours, PET Screen International. As to the method:
as §1

In the next assay the test system is E. coli. The experiment in a line: Preservative efficacy test (PET), log reduction of E. coli. The following applies: 24 hours, PET Screen International. Here is the method: as §1
The next assay deals with C. albicans. The experiment in a line: Preservative efficacy test (PET), log reduction of C. albicans. The note with it: 7 days, PET Screen International. Here is the method: as §1

As to “sodium coco-diimonium chloride phosphate [Compound 1]”, the log reductions in the assay on S. aureus (0.1% Compound 1 emulsion), with S. aureus (0.2% Compound 1 emulsion), in the assay with P. aeruginosa (0.1% Compound 1 emulsion), in the assay on P. aeruginosa (0.2% Compound 1 emulsion), in the assay with E. coli (0.1% Compound 1 emulsion) and in the assay with E. coli (0.2% Compound 1 emulsion) was 5 log each time. Also, the log reductions result in the assay on C. albicans (0.1% Compound 1 emulsion) and in the assay with C. albicans (0.2% Compound 1 emulsion) was “approximately 5 log” in each case.
